Experimental data taken from ChEMBL document CHEMBL5335816, “3-Amino-5,6,7,8-tetrahydrothieno[2,3-b]quinoline-2-carbonitrile: A fluorescent molecule that induces differentiation in PC12 cells” (Bioorg Med Chem, 2024).
Calls of active or inactive are those of the source. The calls are words filed in the database; no cut-off is given here.

Experiments:
PC-12 [1] = experiment: Neuritogenic activity in rat PC12 cells assessed as induction of neural differentiation at 5 to 10 uM incubated for 96 hrs by microscopic analysis; format: functional, cell-based; details: dose 5-10 µM
[2] = Drug uptake in rat PC12 cells by HPLC analysis; format: ADME, cell-based; details: pc-12
[3] = Drug metabolism in rat PC12 cells assessed as formation of 3-amino-5,6,7,8-tetrahydrothieno[2,3-b]quinoline-2-carbonitrile metabolite by fluorescence based assay; format: ADME, cell-based; details: pc-12
[4] = Drug metabolism in rat PC12 cells assessed as formation of 3-amino-5,6,7,8-tetrahydrothieno[2,3-b]quinoline-2-carbonitrile metabolite by HPLC analysis; format: ADME, cell-based; details: pc-12
[5] = Drug uptake in rat PC12 cells by fluorescence based assay; format: ADME, cell-based; details: pc-12
PC-12 [6] = experiment: Neuritogenic activity in rat PC12 cells assessed as induction of neural differentiation incubated for 96 hrs by microscopic analysis; format: functional, cell-based; details: dose > 5.0 µM
PC-12 [7] = experiment: Induction of neural differentiation in rat PC12 cells assessed as increase in Tuj-1 expression at 10 uM incubated for 96 hrs by immunofluorescence staining based assay; format: functional, cell-based
[8] = Fluorescent property of compound in chloroform as wavelength of excitation; format: physicochemical
PC-12 [9] = experiment: Neuritogenic activity in NGF-insensitive rat PC12 cells assessed as fold increase in induction of neural differentiation at 20 uM incubated for 96 hrs by microscopic analysis relative to control; format: functional
[10] = Drug uptake in cytoplasm of rat PC12 cells incubated for 24 hrs by fluorescence staining based microscopy; format: ADME, subcellular; details: pc12, 24 h
[11] = Fluorescent property of compound in DMSO assessed as wavelength of excitation; format: physicochemical
[12] = Fluorescent property of compound in acetonitrile assessed as wavelength of emission; format: physicochemical
[13] = Fluorescent property of compound in acetonitrile assessed as wavelength of excitation; format: physicochemical
[14] = Fluorescent property of compound in toluene assessed as wavelength of excitation; format: physicochemical
[15] = Fluorescent property of compound in methanol assessed as wavelength of excitation; format: physicochemical
[16] = Fluorescent property of compound in DMSO assessed as wavelength of emission; format: physicochemical
[17] = Fluorescent property of compound in toluene assessed as wavelength of emission; format: physicochemical
[18] = Fluorescent property of compound in chloroform assessed as wavelength of emission; format: physicochemical
[19] = Fluorescent property of compound in methanol assessed as wavelength of emission; format: physicochemical
[20] = Drug uptake in rat PC12 cells at 20 uM incubated upto 2 hrs by HPLC analysis; format: ADME, cell-based; details: pc-12, 2 h

N#Cc1sc2ncccc2c1N
Activity (PC-12 [1]): inactive

N#Cc1sc2nc3c(cc2c1N)CCC3
Activity (PC-12 [1]): Active

CCOC(=O)c1sc2nc3c(cc2c1N)CCCC3
Activity (PC-12 [1]): inactive

CC(=O)c1sc2nc3c(cc2c1N)CCCC3
Activity (PC-12 [1]): inactive

N#Cc1sc2nc3c(cc2c1NC=O)CCCC3
Drug uptake [2]: Active | Activity (PC-12 [1]): Active | Drug metabolism [3]: Metabolite_Detected | Drug metabolism [4]: Metabolite_Detected | Drug uptake [5]: Active | Activity (PC-12 [6]): Dose-Dependent Effect | Activity (PC-12 [7]): Active

N#Cc1sc2nc(N3CCOCC3)c3c(c2c1N)CCCC3
Activity (PC-12 [1]): inactive

N#Cc1sc2nc(N3CCCCC3)c3c(c2c1N)CCCC3
Activity (PC-12 [1]): inactive

CC(=O)Nc1c(C#N)sc2nc3c(cc12)CCCC3
Activity (PC-12 [1]): inactive

NC(=O)c1sc2nc3c(cc2c1N)CCCC3
Activity (PC-12 [1]): inactive

N#Cc1sc2nc3c(cc2c1N)CCCC3
Activity [8]: 343 nm | Activity (PC-12 [1]): Active | fold change (FC) (PC-12 [9]): 20 | Drug uptake [10]: Active | Activity [11]: 359 nm | Activity [12]: 460 nm | Activity [13]: 345 nm | Activity [14]: 343 nm | Activity [15]: 356 nm | Activity [16]: 478 nm | Activity [17]: 434 nm | Activity (PC-12 [6]): Dose-Dependent Effect | Activity [18]: 453 nm | Activity (PC-12 [7]): Active | Activity [19]: 485 nm | Drug uptake [20]: Active

N#Cc1sc2ncc3c(c2c1N)CCCC3
Activity (PC-12 [1]): Active
